Test [1] addresses cloned human H3 receptor (Homo sapiens, UniProt Q9Y5N1). Kind of test: H3 Receptor Binding. As to conditions: cloned human H3 receptor stably expressed in SK-N-MC cells.
Test [2] concerns the target Rat SERT (Rattus norvegicus, UniProt P31652). Kind of test: biochemical.
Protocol: The supernatant was removed and re-centrifuged at 15,000 rpm for 30 min. […] Membranes were incubated with 0.6 nM [^3H]-Citalopram plus/minus test compounds for 60 min at 25° C. and harvested by rapid filtration over GF/C glass fiber filters (pretreated with 0.3% polyethylenimine) followed by four washes with ice-cold buffer. Nonspecific binding was defined in the presence of 100 μM fluoxetine.

Structures are written as SMILES.

Usually Ki stands for the equilibrium dissociation constant of an inhibitor or competing ligand from its target.

cloned human H3 receptor, sequence (Q9Y5N1 whole entry): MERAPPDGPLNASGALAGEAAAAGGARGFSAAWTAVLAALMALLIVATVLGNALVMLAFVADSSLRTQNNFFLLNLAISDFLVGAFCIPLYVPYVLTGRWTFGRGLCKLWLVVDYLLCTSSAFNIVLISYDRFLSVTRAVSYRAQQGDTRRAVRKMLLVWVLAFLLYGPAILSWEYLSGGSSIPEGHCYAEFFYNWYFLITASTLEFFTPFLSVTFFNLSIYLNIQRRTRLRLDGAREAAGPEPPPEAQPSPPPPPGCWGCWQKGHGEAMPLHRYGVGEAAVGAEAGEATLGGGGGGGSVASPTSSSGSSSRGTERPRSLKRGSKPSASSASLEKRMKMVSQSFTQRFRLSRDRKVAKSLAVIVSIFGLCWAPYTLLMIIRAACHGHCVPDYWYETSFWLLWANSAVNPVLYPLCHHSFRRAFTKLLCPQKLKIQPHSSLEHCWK
Rat SERT, sequence (P31652 whole entry): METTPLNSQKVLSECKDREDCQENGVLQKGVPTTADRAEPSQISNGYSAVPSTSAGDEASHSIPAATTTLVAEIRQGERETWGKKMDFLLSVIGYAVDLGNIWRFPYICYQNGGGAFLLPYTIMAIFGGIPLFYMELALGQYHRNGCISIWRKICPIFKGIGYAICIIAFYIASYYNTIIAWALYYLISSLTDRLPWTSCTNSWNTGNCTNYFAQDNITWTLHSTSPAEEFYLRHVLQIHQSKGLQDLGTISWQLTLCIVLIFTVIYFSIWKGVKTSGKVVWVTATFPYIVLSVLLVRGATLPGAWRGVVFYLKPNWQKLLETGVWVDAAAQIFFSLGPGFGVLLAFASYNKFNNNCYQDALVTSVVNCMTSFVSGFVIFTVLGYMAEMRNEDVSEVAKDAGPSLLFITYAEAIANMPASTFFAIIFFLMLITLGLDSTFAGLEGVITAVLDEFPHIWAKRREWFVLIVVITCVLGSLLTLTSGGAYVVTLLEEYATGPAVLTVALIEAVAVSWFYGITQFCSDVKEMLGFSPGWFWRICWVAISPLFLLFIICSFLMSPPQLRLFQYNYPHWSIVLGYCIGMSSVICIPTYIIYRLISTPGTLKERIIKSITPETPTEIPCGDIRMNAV

As to `CNCc1cc(C(=O)N2CCN(C3CC3)CC2)ccc1Oc1ccc(C)nc1` [Example 20, (4-Cyclopropyl-piperazin-1-yl)-[3-methylaminomethyl-4-(6-methyl-pyridin-3-yloxy)-phenyl]-methanone], the Ki in test [1] turned out to be 59 nM; in test [2], 190 nM.

Regarding `CNCc1cc(C(=O)N2CCN(C3CC3)CC2)ccc1Oc1ccc(F)c(Cl)c1` [Example 21, [4-(3-Chloro-4-fluoro-phenoxy)-3-methylaminomethyl-phenyl]-(4-cyclopropyl-piperazin-1-yl)-methanone], the Ki in test [1] was determined as 32 nM; in test [2], 19 nM.

In the case of `CNCc1cc(C(=O)N2CCN(C3CC3)CC2)ccc1Oc1ccc(Cl)cc1F` [Example 22, [4-(4-Chloro-2-fluoro-phenoxy)-3-methylaminomethyl-phenyl]-(4-cyclopropyl-piperazin-1-yl)-methanone], the Ki in test [1] turned out to be 18 nM; in test [2] it was 21 nM.

Turning to `CNCc1cc(C(=O)N2CCC(N3CCOCC3)CC2)ccc1Oc1ccc(SC)cc1` [Example 23, [3-Methylaminomethyl-4-(4-methylsulfanyl-phenoxy)-phenyl]-(4-morpholin-4-yl-piperidin-1-yl)-methanone], the Ki in test [1] is 50 nM; in test [2] it was 3 nM.

As to `CNCc1cc(C(=O)N2CCN(C3CC3)CC2)ccc1Oc1cccc(Cl)c1F` [Example 24, [4-(3-Chloro-2-fluoro-phenoxy)-3-methylaminomethyl-phenyl]-(4-cyclopropyl-piperazin-1-yl)-methanone], the Ki is 31 nM in test [1] and 130 nM in test [2].

For the molecule `CNCc1cc(C(=O)N2CC[C@H](N(C)C)C2)ccc1Oc1ccc(SC)cc1` [Example 25, (S)-(3-Dimethylamino-pyrrolidin-1-yl)-[3-methylaminomethyl-4-(4-methylsulfanyl-phenoxy)-phenyl]-methanone], the Ki in test [1] was 7 nM; in test [2], 0.9 nM.

For the molecule `CNCc1cc(C(=O)NCCN(C)C)ccc1Oc1cccc(Cl)c1` [Example 26, 4-(3-Chloro-phenoxy)-N-(2-dimethylamino-ethyl)-3-methylaminomethyl-benzamide], the inhibition constant Ki in test [1] came out at 100 nM; in test [2], 3 nM.

For the molecule `CNCc1cc(C(=O)NCCCN(C)C)ccc1Oc1cccc(Cl)c1` [Example 27, 4-(3-Chloro-phenoxy)-N-(3-dimethylamino-propyl)-3-methylaminomethyl-benzamide], the results for the Ki in test [1] and in test [2] were 48 nM and 0.8 nM, respectively.

Turning to `CNCc1cc(C(=O)N2CCN(C3CC3)CC2)ccc1Sc1ccc(Cl)cc1` [Example 28, [4-(4-Chloro-phenylsulfanyl)-3-methylaminomethyl-phenyl]-(4-cyclopropyl-piperazin-1-yl)-methanone], the affinity in test [1] corresponds to a Ki of 150 nM.

With `CNCc1cc(C(=O)N2CCN(C3CC3)CC2)ccc1Sc1ccccn1` [Example 29, (4-Cyclopropyl-piperazin-1-yl)-[3-methylaminomethyl-4-(pyridin-2-ylsulfanyl)-phenyl]-methanone], the affinity in test [1], expressed as Ki, was 170 nM.

Regarding `CN(C)C1CCN(C(=O)c2ccc(CNC3CC3)c(Oc3cccnc3)c2)C1` (stereo not shown) [Example 32, [4-Cyclopropylaminomethyl-3-(pyridin-3-yloxy)-phenyl]-(3-dimethylamino-pyrrolidin-1-yl)-methanone], the results for the Ki in test [1] and in test [2] were 26 nM and 6000 nM, respectively.

Consider `CNCc1ccc(C(=O)N2CCN(C(C)C)CC2)cc1Oc1ccc(Cl)c(Cl)c1` [Example 37, [3-(3,4-Dichloro-phenoxy)-4-methylaminomethyl-phenyl]-(4-isopropyl-piperazin-1-yl)-methanone], for which the Ki in test [1] was 1 nM; in test [2], 2 nM.

As for `CNCc1ccc(C(=O)N2CCN(C(C)C)CC2)cc1Oc1cccc(Cl)c1` [Example 38, [3-(3-Chloro-phenoxy)-4-methylaminomethyl-phenyl]-(4-isopropyl-piperazin-1-yl)-methanone], the Ki in test [1] came to 4 nM; in test [2], 130 nM.

Take `CNCc1ccc(C(=O)N2CCN(C3CC3)CC2)cc1Oc1ccc(Cl)c(Cl)c1` [Example 39, (4-Cyclopropyl-piperazin-1-yl)-[3-(3,4-dichloro-phenoxy)-4-methylaminomethyl-phenyl]-methanone]: the results for the inhibition constant (Ki) in test [1] and in test [2] were 15 nM and 17 nM, respectively.

For the molecule `CNCc1cc(N2CCN(C(C)C)CC2)ccc1Oc1ccc(SC)cc1` [Example 40, [5-(4-Isopropyl-piperazin-1-yl)-2-(4-methylsulfanyl-phenoxy)-benzyl]-methyl-amine], the inhibitory constant (Ki) in test [1] came to 7 nM; in test [2] it was 0.1 nM.

For the molecule `CNCc1cc(N2CCN(C)CC2)ccc1Oc1ccc(SC)cc1` [Example 41, Methyl-[5-(4-methyl-piperazin-1-yl)-2-(4-methylsulfanyl-phenoxy)-benzyl]-amine], the values for the Ki in test [1] and in test [2] were 210 nM and 0.4 nM, respectively.

In the case of `CNCc1cc(N2CCN(C3CCC3)CC2)ccc1Oc1ccc(SC)cc1` [Example 42, [5-(4-Cyclobutyl-piperazin-1-yl)-2-(4-methylsulfanyl-phenoxy)-benzyl]-methyl-amine], the values for the inhibitory constant (Ki) in test [1] and in test [2] were 6 nM and 0.3 nM, respectively.

For the molecule `CNCc1cc(N2CCN(c3ccncc3)CC2)ccc1Oc1ccc(SC)cc1` [Example 43, Methyl-[2-(4-methylsulfanyl-phenoxy)-5-(4-pyridin-4-yl-piperazin-1-yl)-benzyl]-amine], the inhibition constant (Ki) in test [1] came out at 110 nM; in test [2] it was 0.7 nM.

Turning to `CNCc1cc(N2CCN(CCF)CC2)ccc1Oc1ccc(SC)cc1` [Example 44, [5-[4-(2-Fluoro-ethyl)-piperazin-1-yl]-2-(4-methylsulfanyl-phenoxy)-benzyl]-methyl-amine], the Ki in test [1] was 160 nM; in test [2] it was 0.5 nM.

Take `CNCc1cc(N2CCN(C3CC3)CC2)ccc1Oc1ccc(SC)cc1` [Example 45, [5-(4-Cyclopropyl-piperazin-1-yl)-2-(4-methylsulfanyl-phenoxy)-benzyl]-methyl-amine]: the inhibition constant Ki in test [1] is 76 nM; in test [2], 1 nM.

Take `CNCc1cc(N2CCN(C3CC3)CC2)ccc1Oc1ccc(Cl)c(Cl)c1` [Example 46, [5-(4-Cyclopropyl-piperazin-1-yl)-2-(3,4-dichloro-phenoxy)-benzyl]-methyl-amine]: the Ki came to 49 nM in test [1] and 4 nM in test [2].

Regarding `CNCc1cc(N2CCN(C(C)C)CC2)ccc1Oc1ccc(Cl)c(Cl)c1` [Example 47, [2-(3,4-Dichloro-phenoxy)-5-(4-isopropyl-piperazin-1-yl)-benzyl]-methyl-amine], the values for the inhibition constant Ki in test [1] and in test [2] were 20 nM and 2 nM, respectively.

As for `CNCc1cc(N2CCNCC2=O)ccc1Oc1ccc(SC)cc1` [Example 48, 1-[3-Methylaminomethyl-4-(4-methylsulfanyl-phenoxy)-phenyl]-piperazin-2-one], the results for the Ki in test [1] and in test [2] were 5500 nM and 0.4 nM, respectively.

As for `CNCc1cc(N2CCN(C(C)C)CC2=O)ccc1Oc1ccc(SC)cc1` [Example 49, 4-Isopropyl-1-[3-methylaminomethyl-4-(4-methylsulfanyl-phenoxy)-phenyl]-piperazin-2-one], the figures for the inhibition constant (Ki) in test [1] and in test [2] were 400 nM and 2 nM, respectively.

In the case of `CNCc1cc(N2CCN(C(C)C)CC2=O)ccc1Oc1ccc(Cl)c(Cl)c1` [Example 50, 1-[4-(3,4-Dichloro-phenoxy)-3-methylaminomethyl-phenyl]-4-isopropyl-piperazin-2-one], the Ki in test [1] came to 150 nM; in test [2] it was 7 nM.

Regarding `COCCN(CCOC)Cc1ccc(C(=O)N2CCN(C3CC3)CC2)cc1Oc1ccc(C)nc1C` [Example 82, [4-{[Bis-(2-methoxy-ethyl)-amino]-methyl}-3-(2,6-dimethyl-pyridin-3-yloxy)-phenyl]-(4-cyclopropyl-piperazin-1-yl)-methanone], the affinity in test [1], expressed as Ki, was 200 nM.

As to `Cc1ccc(Oc2cc(C(=O)N3CCN(C(C)C)CC3)ccc2CN2CCOCC2)c(C)n1` [Example 83, [3-(2,6-Dimethyl-pyridin-3-yloxy)-4-morpholin-4-ylmethyl-phenyl]-(4-isopropyl-piperazin-1-yl)-methanone], the affinity in test [1], expressed as Ki, was 21 nM.

For `CN(C)Cc1ccc(C(=O)N2CCCCC2)cc1Oc1ccccc1` [Example 84, (4-Dimethylaminomethyl-3-phenoxy-phenyl)-piperidin-1-yl-methanone], the affinity in test [1] corresponds to a Ki of 4500 nM. Against the preceding molecule, the Ki is about 210-fold higher.

`COCCN(CCOC)Cc1ccc(C(=O)N2CCN(C(C)C)CC2)cc1Oc1ccccc1` [Example 85, (4-{[Bis-(2-methoxy-ethyl)-amino]-methyl}-3-phenoxy-phenyl)-(4-isopropyl-piperazin-1-yl)-methanone] displayed an inhibitory constant (Ki) in test [1] of 12 nM.

Molecule `COCCN(CCOC)Cc1ccc(C(=O)N2CCC(N(C)C)CC2)cc1Oc1cccnc1` [Example 86, [4-{[Bis-(2-methoxy-ethyl)-amino]-methyl}-3-(pyridin-3-yloxy)-phenyl]-(4-dimethylamino-piperidin-1-yl)-methanone] registered a Ki in test [1] of 200 nM.

For the molecule `CC(C)N1CCN(Cc2ccc(C(=O)N3CCCCC3)cc2Oc2ccccc2)CC1` [Example 87, [4-(4-Isopropyl-piperazin-1-ylmethyl)-3-phenoxy-phenyl]-piperidin-1-yl-methanone], the inhibition constant Ki in test [1] stood at 280 nM.

In test [1], `CC(C)N1CCN(Cc2ccc(C(=O)N3CCCCC3)cc2Oc2cccnc2)CC1` [Example 88, [4-(4-Isopropyl-piperazin-1-ylmethyl)-3-(pyridin-3-yloxy)-phenyl]-piperidin-1-yl-methanone] returned a Ki of 220 nM.

`CNCCNC(=O)c1ccc(CN(C)C)c(Oc2cccnc2)c1` [Example 89, 4-Dimethylaminomethyl-N-(2-methylamino-ethyl)-3-(pyridin-3-yloxy)-benzamide]: the affinity in test [1], expressed as Ki, was 1900 nM.

For `CN(C)Cc1ccc(C(=O)NCCN(C)C2CC2)cc1Oc1cccnc1` [Example 90, N-[2-(Cyclopropyl-methyl-amino)-ethyl]-4-dimethylaminomethyl-3-(pyridin-3-yloxy)-benzamide], the inhibition constant Ki in test [1] is 45 nM. Compared with the last molecule, the Ki is about 42-fold lower.

In test [1], `COc1cccc(Oc2ccc(C(=O)N3CCN(C(C)C)CC3)cc2CN(C)C(=O)OC(C)(C)C)c1` [Example 91, [5-(4-Isopropyl-piperazine-1-carbonyl)-2-(3-methoxy-phenoxy)-benzyl]-methyl-carbamic acid tert-butyl ester] displayed a Ki of 58 nM.

The record behind these values is patent publication US7479493B2, “Substituted benzyl amine compounds” (Janssen Pharmaceutica N.V., priority 2006, dated 2009).
